# Measured values from ChEMBL document CHEMBL5032511, “Improving Druggability of Novel Diarylpyrimidine NNRTIs by a Fragment-Based Replacement Strategy: From Biphenyl-DAPYs to Heteroaromatic-Biphenyl-DAPYs” (J Med Chem, 2021).
# What was measured:
# [1] = Stability in human liver microsome assessed as binding constant at 1 uM in presence of NADPH by LC/MS/MS analysis; conditions: microsomes
# [2] = test system: Human immunodeficiency virus 1; assay: Antiviral activity against HIV1 IIIB infected human MT4 cells assessed as protection against virus-induced cytopathic effect by MTT assay; assay type: functional, organism-based; conditions: Human immunodeficiency virus 1, IIIB
# [3] = Selectivity index, ratio of CC50 for mock infected human MT4 cells to IC50 for HIV1 IIIB infected human MT4 cells
# [4] = Stability in rat liver microsome assessed as binding constant at 1 uM in presence of NADPH by LC/MS/MS analysis; conditions: microsomes
# [5] = Cytotoxicity against mock infected human MT4 cells by MTT assay
# [6] = Oral bioavailability in Sprague-Dawley rat at 5 mg/kg by LCMS analysis; assay type: ADME, organism-based; conditions: in vivo
# [7] = test system: Human immunodeficiency virus 1; assay: Anti-viral activity against HIV1 harboring RT K103N mutant infected […] cells assessed as protection against virus-induced cytopathic effect by MTT assay; assay type: functional, organism-based; conditions: Human immunodeficiency virus 1, MT4
# [8] = test system: Human immunodeficiency virus 1; assay: Anti-viral activity against HIV1 harboring RT L100I mutant infected […] cells assessed as protection against virus-induced cytopathic effect by MTT assay; assay type: functional, organism-based; conditions: Human immunodeficiency virus 1, MT4
# [9] = biological target: Human immunodeficiency virus type 1 reverse transcriptase (Human immunodeficiency virus 1, UniProt Q72547); assay: Inhibition of recombinant wild-type HIV1 p66/p51 reverse transcriptase assessed as inhibition of [3H][…] incorporation using poly (rA) as templates incubated for 40 mins by spectrofluorometer
# [10] = test system: Human immunodeficiency virus 1; assay: Anti-viral activity against HIV1 harboring RT Y181C mutant infected […] cells assessed as protection against virus-induced cytopathic effect by MTT assay; assay type: functional, organism-based; conditions: Human immunodeficiency virus 1, MT4
# [11] = test system: Human immunodeficiency virus 1; assay: Anti-viral activity against HIV1 harboring RT Y188L mutant infected […] cells assessed as protection against virus-induced cytopathic effect by MTT assay; assay type: functional, organism-based; conditions: Human immunodeficiency virus 1, MT4
# [12] = test system: Human immunodeficiency virus 1; assay: Anti-viral activity against HIV1 harboring RT E138K mutant infected […] cells assessed as protection against virus-induced cytopathic effect by MTT assay; assay type: functional, organism-based; conditions: Human immunodeficiency virus 1, MT4
# [13] = MRT (infinity) in Sprague-Dawley rat at 1 mg/kg, iv by LCMS analysis; assay type: ADME, organism-based; conditions: in vivo
# [14] = Acute toxicity in fasted mouse assessed as weight loss at 2 g/Kg, IG upto 2 weeks; conditions: in vivo, po, 2000 mg/kg, 336 h
# [15] = Acute toxicity in fasted mouse assessed as behavioral changes at 2 g/Kg, IG upto 2 weeks; conditions: in vivo, po, 2000 mg/kg, 336 h
# [16] = AUC (infinity) in Sprague-Dawley rat at 5 mg/kg, po by LCMS analysis; assay type: ADME, organism-based; design: route oral, time infinity, dose 5 mg/kg; conditions: in vivo
# in vitro [17] = conditions: rat, liver microsomes
# [18] = Acute toxicity in fasted mouse assessed as mouse death at 2 g/Kg, IG; conditions: in vivo, po, 2000 mg/kg
# [19] = Acute toxicity in fasted mouse assessed as pathological changes in lung at 2 g/Kg, IG upto 2 weeks after 14 days by H and E staining based analysis; assay type: tissue-based; conditions: in vivo, po, 2000 mg/kg, 336 h
# in vitro [20] = conditions: rat, liver microsomes; remark: listed apart in the source
# in vitro [21] = conditions: human, liver microsomes
# in vitro [22] = conditions: human, liver microsomes; remark: listed apart in the source
# [23] = Stability in mouse liver microsome assessed as binding constant at 1 uM in presence of NADPH by LC/MS/MS analysis; assay type: ADME; conditions: microsomes
# [24] = AUC (all) in Sprague-Dawley rat at 5 mg/kg, po by LCMS analysis; assay type: ADME, organism-based; design: dose 5 mg/kg; conditions: in vivo
# [25] = Clearance in Sprague-Dawley rat at 1 mg/kg, iv; assay type: ADME, organism-based; conditions: in vivo
# [26] = Acute toxicity in fasted mouse assessed as pathological changes in kidney at 2 g/Kg, IG upto 2 weeks after 14 days by H and E staining based analysis; assay type: tissue-based; conditions: in vivo, po, 2000 mg/kg, 336 h
# [27] = MRT (infinity) in Sprague-Dawley rat at 5 mg/kg, po by LCMS analysis; assay type: ADME, organism-based; conditions: in vivo
# [28] = Acute toxicity in fasted mouse assessed as pathological changes in heart at 2 g/Kg, IG upto 2 weeks after 14 days by H and E staining based analysis; assay type: tissue-based; conditions: in vivo, po, 2000 mg/kg, 336 h
# [29] = Tmax in Sprague-Dawley rat at 5 mg/kg, po by LCMS analysis; assay type: ADME, organism-based; conditions: in vivo
# [30] = Stability in mouse liver microsome assessed as half life at 1 uM in presence of NADPH by LC/MS/MS analysis; assay type: ADME; conditions: liver microsomes
# [31] = AUC (infinity) in Sprague-Dawley rat at 1 mg/kg, iv by LCMS analysis; assay type: ADME, organism-based; design: route intravenous, time infinity, dose 1 mg/kg; conditions: in vivo
# [32] = Cmax in Sprague-Dawley rat at 1 mg/kg, iv by LCMS analysis; assay type: ADME, organism-based; design: route intravenous, dose 1 mg/kg; conditions: in vivo
# [33] = Intrinsic clearance in mouse liver microsome at 1 uM in presence of NADPH by LC/MS/MS analysis; assay type: ADME; conditions: liver microsomes, read-out: CLH
# [34] = Half life in Sprague-Dawley rat at 1 mg/kg, iv by LCMS analysis; assay type: ADME, organism-based; conditions: in vivo
# [35] = Acute toxicity in fasted mouse assessed as pathological changes in spleen at 2 g/Kg, IG upto 2 weeks after 14 days by H and E staining based analysis; assay type: tissue-based; conditions: in vivo, po, 2000 mg/kg, 336 h
# [36] = Acute toxicity in fasted mouse assessed as pathological changes in liver at 2 g/Kg, IG upto 2 weeks after 14 days by H and E staining based analysis; assay type: tissue-based; conditions: in vivo, po, 2000 mg/kg, 336 h
# [37] = AUC (all) in Sprague-Dawley rat at 1 mg/kg, iv by LCMS analysis; assay type: ADME, organism-based; design: dose 1 mg/kg; conditions: in vivo
# [38] = Acute toxicity in fasted mouse assessed as pathological changes in brain at 2 g/Kg, IG upto 2 weeks after 14 days by H and E staining based analysis; assay type: tissue-based; conditions: in vivo, po, 2000 mg/kg, 336 h
# [39] = Half life in Sprague-Dawley rat at 5 mg/kg, po by LCMS analysis; assay type: ADME, organism-based; conditions: in vivo
# [40] = Aqueous solubility of compound in PBS at pH 7.4 by HPLC-UV analysis; conditions: buffer
# [41] = Aqueous solubility of compound in PBS at pH 7 by HPLC-UV analysis; conditions: buffer
compound,measurement,setting,value
Cc1cc(-c2ccc(C#N)cc2)cc(C)c1Nc1ccnc(Nc2ccc(C#N)cc2)n1,K,[1],0.047 min⁻¹
same,EC50,[2],1 nM
same,selectivity ratio,[3],2080
same,K,[4],0.045 min⁻¹
same,CC50,[5],2100 nM
Cc1cc(/C=C/C#N)cc(C)c1Nc1ccnc(Nc2ccc(C#N)cc2)n1.Cl [RILPIVIRINE HYDROCHLORIDE],bioavailability,[6],32%
N#Cc1ccc(Nc2nccc(Nc3c(F)cc(-c4ccncc4F)cc3F)n2)cc1,EC50,[2],1.3 nM
same,selectivity ratio,[3],2570
same,EC50,[7],1.9 nM
same,EC50,[8],7.4 nM
same,IC50,[9],9.1 nM
same,EC50,[10],7 nM
same,CC50,[5],3300 nM
same,EC50,[11],92 nM
same,EC50,[12],2.3 nM
N#Cc1ccc(Nc2nccc(Nc3c(F)cc(-c4coc5ccccc45)cc3F)n2)cc1,EC50,[2],44 nM
same,selectivity ratio,[3],1990
same,EC50,[7],1300 nM
same,EC50,[8],3450 nM
same,IC50,[9],28 nM
same,EC50,[10],2750 nM
same,CC50,[5],87000 nM
same,EC50,[11],6340 nM
same,EC50,[12],335 nM
N#Cc1ccc(Nc2nccc(Nc3c(F)cc(-c4ccco4)cc3F)n2)cc1,EC50,[2],2.1 nM
same,selectivity ratio,[3],7910
same,EC50,[7],71 nM
same,EC50,[8],86 nM
same,IC50,[9],10 nM
same,EC50,[10],84 nM
same,CC50,[5],16600 nM
same,EC50,[11],2170 nM
same,EC50,[12],10 nM
Cl.N#Cc1ccc(Nc2nccc(Nc3c(F)cc(-c4ccncc4)cc3F)n2)cc1,K,[1],0.0142 min⁻¹
same,MRT inf,[13],50.4 min
same,Activity,[14],Non-Toxic
same,Activity,[15],Non-Toxic
same,AUC(0-inf),[16],3350 ng·h/mL
same,half-life at 1 µM,in vitro [17],32 min
same,Activity,[18],Non-Toxic
same,Activity,[19],Non-Toxic
same,microsomal CLint at 1 µM,in vitro [20],43 µL/min/mg
same,half-life at 1 µM,in vitro [21],49 min
same,microsomal CLint at 1 µM,in vitro [22],28 µL/min/mg
same,K,[23],0.0259 min⁻¹
same,bioavailability,[6],126%
same,AUC,[24],3340 ng·h/mL
same,clearance,[25],32 mL/min/kg
same,K,[4],0.0215 min⁻¹
same,Activity,[26],Non-Toxic
same,MRT inf,[27],101 min
same,Activity,[28],Non-Toxic
same,Tmax,[29],34.8 min
same,half-life at 1 µM,[30],27 min
same,AUC(0-inf),[31],531 ng·h/mL
same,Cmax,[32],1370 ng/mL
same,microsomal CLint at 1 µM,[33],52 µL/min/mg
same,half-life,[34],45.6 min
same,Activity,[35],Non-Toxic
same,Activity,[36],Non-Toxic
same,AUC,[37],526 ng·h/mL
same,Activity,[38],Non-Toxic
same,half-life,[39],50.4 min
Cc1cc(/C=C/C#N)cc(C)c1Nc1ccnc(Nc2ccc(C#N)cc2)n1 [RILPIVIRINE],solubility,[40],< 1 µg/mL
same,solubility,[41],< 1 µg/mL
N#Cc1ccc(Nc2nccc(Nc3c(F)cc(-c4ccc(N)cc4)cc3F)n2)cc1,EC50,[2],9.2 nM
same,selectivity ratio,[3],> 32900
same,EC50,[7],144 nM
same,EC50,[8],561 nM
same,IC50,[9],37 nM
same,EC50,[10],482 nM
same,CC50,[5],> 303000 nM
same,EC50,[11],1180 nM
same,EC50,[12],37 nM
N#Cc1ccc(Nc2nccc(Nc3c(F)cc(-c4csc5ccccc45)cc3F)n2)cc1,EC50,[2],124 nM
same,selectivity ratio,[3],132
same,EC50,[7],5790 nM
same,EC50,[8],6450 nM
same,IC50,[9],59 nM
same,EC50,[10],6210 nM
same,CC50,[5],16000 nM
same,EC50,[11],7480 nM
same,EC50,[12],601 nM
